One test addresses Cruzain (Trypanosoma cruzi, UniProt P25779). As to the kind of experiment: Cysteine protease inhibition, progress curve method, cruzain. The format is biochemical. The note with it: 4 uM Ac-Lys-Glu-Lys-Leu-Arg-AMC, 100 mM Na acetate pH 5.5, 5 mM cysteine; read-out: Cruzain Ki. In a few lines:
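Kinetic constants from AMC-release progress curves over 20–30 min at ambient temperature in 100 mM Na acetate pH 5.5, 5 mM cysteine, 2% DMSO; enzyme added last to inhibitor plus substrate. Substrates: 10 uM Cbz-Phe-Arg-AMC (Leishmania, Schistosoma), 10 uM Cbz-Leu-Arg-AMC (falcipain), 4 uM Ac-Lys-Glu-Lys-Leu-Arg-AMC (cruzain). Ki,app from linear curves; time-dependent inhibition as kobs/[I].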

For another test, the target named is Rhodazain (Trypanosoma brucei rhodesiense, UniProt Q95PM0). Kind of test: Cysteine protease inhibition, progress curve method, rhodazain. Particulars: Rhodazain Ki (nM), 10 uM Cbz-Leu-Arg-AMC, 100 mM Na acetate pH 5.5, 5 mM cysteine. The format is biochemical, Trypanosoma brucei rhodesiensi. The procedure:
Standard assay conditions for the determination of kinetic constants used 10 uM fluorogenic peptide substrate, Cbz-Phe-Arg-AMC for the cysteine proteases from Leishmania spp and Schistosoma Mansoni, Cbz-Leu-Arg-AMC for the cysteine proteases from Plasmodium falciparum and Trypanosoma brucei rhodesiensi, and Ac-Lys-Glu-Lys-Leu-Arg-AMC (4 uM final substrate concentration) for the cysteine protease from Trypoanosoma cruzi, and were determined in 100 mM Na acetate at pH 5.5 containing 5 mM cysteine. Stock substrate solutions were prepared at concentrations of […] in DMSO with 10 uM (4 uM for Ac-Lys-Glu-Lys-Leu-Arg-AMC) final substrate concentration in the assays. The final DMSO concentration was 2% and the final volume was 100 uL. All assays were conducted at ambient temperature. Product progress curves were generated over 20 to 30 minutes following formation of AMC product.
Potential inhibitors were evaluated using the progress curve method. Assays were carried out in the presence of variable concentrations of test compound. Reactions were initiated by addition of enzyme to buffered solutions of inhibitor and substrate. Data analysis was conducted according to one of two procedures depending on the appearance of the progress curves in the presence of inhibitors. For those compounds whose progress curves were linear, apparent inhibition constants (Ki,app) were calculated according to equation 1 (Brandt et al., Biochemitsry, 1989, 28, 140):
v=VmA/[Ka(1+I/Ki,app)+A] (1)
Where v is the velocity of the reaction with maximal velocity Vm, A is the concentration of substrate with Michaelis constant of Ka, and I is the concentration of inhibitor.
[AMC]=vsst+(v0−vss)[1−exp (−kobst)]/kobs (2)
Where [AMC] is the concentration of product formed over time t, v0 is the initial reaction velocity and vss is the final steady state rate. Values for kobs were then analyzed as a linear function of inhibitor concentration to generate an apparent second order rate constant (kobs/inhibitor concentration or kobs/[I]) describing the time-dependent inhibition. A complete discussion of this kinetic treatment has been fully described (Morrison et al., Adv. Enzymol. Relat. Areas Mol. Biol., 1988, 61, 201).
Exemplary inhibition data for the compounds used in the present method collected in accordance with the above-described procedure are listed in Table I.

Cruzain, sequence (P25779 123-337): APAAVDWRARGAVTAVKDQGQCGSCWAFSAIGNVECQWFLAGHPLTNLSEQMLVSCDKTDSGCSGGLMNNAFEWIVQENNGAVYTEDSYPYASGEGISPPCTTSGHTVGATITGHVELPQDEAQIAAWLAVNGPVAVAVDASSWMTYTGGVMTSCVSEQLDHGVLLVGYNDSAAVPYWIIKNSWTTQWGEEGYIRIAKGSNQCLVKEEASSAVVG
Rhodazain, sequence (Q95PM0 entry or part of it): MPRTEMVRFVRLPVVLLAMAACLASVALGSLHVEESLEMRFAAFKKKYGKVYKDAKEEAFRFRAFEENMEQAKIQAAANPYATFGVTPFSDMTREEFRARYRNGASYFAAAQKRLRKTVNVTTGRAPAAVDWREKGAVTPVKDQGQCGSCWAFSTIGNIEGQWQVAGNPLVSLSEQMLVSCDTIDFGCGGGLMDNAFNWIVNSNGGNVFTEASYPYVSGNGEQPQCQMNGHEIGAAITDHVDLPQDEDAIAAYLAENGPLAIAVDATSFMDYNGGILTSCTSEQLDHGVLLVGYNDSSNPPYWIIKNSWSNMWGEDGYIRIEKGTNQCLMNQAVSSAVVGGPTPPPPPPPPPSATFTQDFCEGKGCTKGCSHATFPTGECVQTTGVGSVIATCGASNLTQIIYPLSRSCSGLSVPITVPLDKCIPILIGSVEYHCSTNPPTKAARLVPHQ

In general, Ki refers to a dissociation constant, usually derived from enzyme kinetics or from competition with a known ligand. For the compound `Cc1c(C(=O)N[C@H](CC(C)C)C(=O)N[C@@H]2CCCN(S(=O)(=O)c3cccc[n+]3[O-])CC2=O)oc2ccccc12` (single isomer, unassigned) [Example 99], the inhibition constant (Ki) on Cruzain amounted to 7.8 nM; on Rhodazain, 5.1 nM.
For the compound `CC(C)C[C@@H](NC(=O)c1cc2cc(F)c(F)cc2o1)C(=O)N[C@@H]1CCCN(S(=O)(=O)c2ccccn2)CC1=O` (single isomer, unassigned) [Example 150], the results for the Ki at Cruzain and at Rhodazain were 5.4 nM and 3.7 nM, respectively.
Take `CC(C)C[C@@H](NC(=O)c1ccc2ccccc2n1)C(=O)N[C@@H]1CCCN(S(=O)(=O)c2ccccn2)CC1=O` (single isomer, unassigned) [Example 151]: the Ki on Cruzain was 7.1 nM; at Rhodazain, 6.1 nM.
Turning to `CC(C)C[C@@H](NC(=O)c1nccc2ccccc12)C(=O)N[C@@H]1CCCN(S(=O)(=O)c2ccccn2)CC1=O` (single isomer, unassigned) [Example 154], the Ki at Cruzain and on Rhodazain was 4.4 nM in each case.
Regarding `CC(C)C[C@H](NC(=O)c1cc2ccccc2o1)C(=O)N[C@H]1C[C@H](C)CN(S(=O)(=O)c2ccccn2)CC1=O` (single isomer, unassigned) [Example 167], the Ki on Cruzain came to 3.5 nM; on Rhodazain, 4 nM.
For the compound `CC(C)C[C@H](NC(=O)c1cc2ccccc2o1)C(=O)N[C@H]1C[C@H](C)CN(S(=O)(=O)c2ccccn2)CC1=O` (single isomer, unassigned) [Example 173], the results for the Ki on Cruzain and on Rhodazain were 2 nM and 2.2 nM, respectively.
Consider `CC(C)C[C@@H](NC(=O)c1cc2cc(F)ccc2o1)C(=O)N[C@H]1CCCN(S(=O)(=O)c2cccc[n+]2[O-])CC1=O` (single isomer, unassigned) [Example 194], for which the Ki on Cruzain stood at 8.7 nM; on Rhodazain it was 6.7 nM.
On the same counts, the results for `Cc1c(C(=O)N[C@H](CC(C)C)C(=O)N[C@H]2CCCN(S(=O)(=O)c3cccc[n+]3[O-])CC2=O)oc2ccc(F)cc12` (single isomer, unassigned) [Example 195] are 9.4 nM and 6.6 nM.
`Cc1c(C(=O)NC(CC(C)C)C(=O)N[C@H]2CCCN(S(=O)(=O)c3cccc[n+]3[O-])CC2=O)oc2cc(F)ccc12` (single isomer, unassigned) [Example 196]: the Ki was determined as 11 nM on Cruzain and 6.8 nM at Rhodazain.
For `Cc1ccc2oc(C(=O)NC(CC(C)C)C(=O)N[C@H]3CCN(S(=O)(=O)c4cccc[n+]4[O-])CCC3=O)c(C)c2c1` (single isomer, unassigned) [Example 206], the values for the Ki on Cruzain and on Rhodazain were 6.6 nM and 4.9 nM, respectively.
On to `CCc1c(C(=O)NC(CC(C)C)C(=O)N[C@H]2CCN(S(=O)(=O)c3cccc[n+]3[O-])CCC2=O)oc2ccccc12` (single isomer, unassigned) [Example 207], for which the Ki was 10 nM at Cruzain and 5.4 nM on Rhodazain.
`COc1ccc2c(C)c(C(=O)NC(CC(C)C)C(=O)N[C@H]3CCN(S(=O)(=O)c4cccc[n+]4[O-])CCC3=O)oc2c1` (single isomer, unassigned) [Example 211]: the Ki on Cruzain was found to be 10 nM; on Rhodazain, 2.8 nM.
In the case of `CC(C)C[C@@H](NC(=O)c1ccc2ncccc2c1)C(=O)N[C@@H]1CCCN(S(=O)(=O)c2ccccn2)CC1=O` (stereo in doubt) [Example 25, Quinoline-6-carboxylic acid {(S)-3-methyl-1-[3-oxo-1-(pyridine-2-sulfonyl)-azepan-4-ylcarbamoyl]-butyl}amide], the inhibitory constant (Ki) turned out to be 8.3 nM on Cruzain and 8 nM on Rhodazain.
Turning to `CC(C)C[C@@H](NC(=O)c1ccnc2ccccc12)C(=O)N[C@@H]1CCCN(S(=O)(=O)c2ccccn2)CC1=O` (stereo in doubt) [Example 26, Quinoline-4-carboxylic acid {(S)-3-methyl-1-[3-oxo-1-(pyridine-2-sulfonyl)-azepan-4-ylcarbamoyl]-butyl}amide], the Ki at Cruzain turned out to be 9.4 nM; at Rhodazain, 8.1 nM.
Regarding `CC(C)C[C@@H](NC(=O)c1cnc2ccccc2n1)C(=O)N[C@@H]1CCCN(S(=O)(=O)c2ccccn2)CC1=O` (stereo in doubt) [Example 30, Quinoxaline-2-carboxylic acid {(S)-3-methyl-1-[3-oxo-1-(pyridine-2-sulfonyl)-azepan-4-ylcarbamoyl]-butyl}amide], the Ki at Cruzain is 17 nM; at Rhodazain, 10 nM.
Turning to `CC(C)C[C@@H](NC(=O)c1cc2ccccc2s1)C(=O)N[C@@H]1CCCN(S(=O)(=O)c2ccccn2)CC1=O` (stereo in doubt) [Example 31, Benzo[b]thiophene-2-carboxylic acid {(S)-3-methyl-1-[3-oxo-1-(pyridine-2-sulfonyl)-azepan-4-ylcarbamoyl]-butyl}amide], the inhibition constant (Ki) at Cruzain amounted to 7.2 nM; on Rhodazain, 5 nM.
The corresponding values for `CC(C)C[C@@H](NC(=O)c1ccc(Br)o1)C(=O)N[C@@H]1CCCN(S(=O)(=O)c2ccccn2)CC1=O` (stereo in doubt) [Example 34, 5-Bromo-furan-2-carboxylic acid {(S)-3-methyl-1-[3-oxo-1-(pyridine-2-sulfonyl)-azepan-4-ylcarbamoyl]-butyl}amide] are 12 nM and 2.6 nM.
The corresponding values for `CC(C)C[C@@H](NC(=O)c1cc2cc(F)c(F)cc2o1)C(=O)N[C@@H]1CCCN(S(=O)(=O)c2ccccn2)CC1=O` (stereo in doubt) [Example 149, 5,6-Difluoro-benzofuran-2-carboxylic acid {(S)-3-methyl-1-[1-(pyridine-2-sulfonyl)-3-oxo-azepan-4-ylcarbamoyl]-butyl}amide] are 9.1 nM and 6.3 nM.
As for `Cc1cccnc1S(=O)(=O)N1CCC[C@@H](NC(=O)[C@@H](CC(C)C)NC(=O)c2oc3ccccc3c2C)C(=O)C1` (stereo in doubt) [Example 161, 3-Methyl-benzofuran-2-carboxylic acid {(S)-3-methyl-1-[1-(3-methyl-pyridine-2-sulfonyl)-3-oxo-azepan-4-ylcarbamoyl]-butyl}amide], the Ki at Cruzain is 7.8 nM; at Rhodazain, 6.4 nM.
As to `CC(C)C[C@H](NC(=O)c1cc2ccccc2s1)C(=O)N[C@H]1CCCN(C(=O)Nc2ccccc2F)CC1=O` (stereo in doubt) [Example 215, Benzo[b]thiophene-2-carboxylic acid {(S)-1-[1-(2-fluoro-phenylcarbamoyl)-3-oxo-azepan-4-ylcarbamoyl]-3-methyl-butyl}-amide], the Ki at Cruzain came to 6.4 nM; on Rhodazain, 3.6 nM.
`CC(C)C[C@@H](NC(=O)c1cc2ccccc2o1)C(=O)N[C@@H]1CCCN(S(=O)(=O)c2ccccn2)CC1=O` [Example 16]: the values for the Ki at Cruzain and at Rhodazain were 6.1 nM and 5.5 nM, respectively.
As to `CC(C)C[C@@H](NC(=O)c1cc2cc(OCC[N+]3([O-])CCOCC3)ccc2o1)C(=O)N[C@@H]1CCCN(S(=O)(=O)c2ccccn2)CC1=O` [Example 43, 5-(4-Oxy-morpholino-4-yl-ethoxy)-benzofuran-2-carboxylic acid {(S)-3-methyl-1-[3-oxo-1-(pyridine-2-sulfonyl)-azepan-4-ylcarbamoyl]-butyl}amide], the Ki on Cruzain turned out to be 3.6 nM; at Rhodazain it was 4.9 nM.
As for `CC(C)C[C@H](NC(=O)c1cc2cc(O)ccc2o1)C(=O)N[C@H]1CCCN(S(=O)(=O)c2cn(C)cn2)CC1=O` [Example 44, 5-Hydroxy-benzofuran-2-carboxylic acid {(S)-3-methyl-1-[1-(1-methyl-1H-imidazole-4-sulfonyl)-3-oxo-azepan-4-ylcarbamoyl]-butyl}amide], the results for the Ki on Cruzain and at Rhodazain were 11 nM and 7.2 nM, respectively.
In the case of `CC(C)C[C@@H](NC(=O)c1ccc(Br)o1)C(=O)N[C@@H]1CCCN(S(=O)(=O)c2cccc[n+]2[O-])CC1=O` [Example 47], the figures for the Ki on Cruzain and at Rhodazain were 13 nM and 2.7 nM, respectively.
In the case of `CC(C)C[C@@H](NC(=O)c1cc2ccccc2o1)C(=O)N[C@@H]1CCCN(S(=O)(=O)c2cccc[n+]2[O-])CC1=O` [Example 49], the Ki on Cruzain is 5.6 nM; at Rhodazain it was 3.1 nM.

Source of the values: patent publication US20030044399A1, “Method of treatment” (SmithKline Beecham Corporation, priority 1998, published 2003).
